Test results taken from PMC10923054, “Antiplasmodial peptaibols act through membrane directed mechanisms” (Cell Chemical Biology, 2024).
Read-outs that look alike come from different tables or passages of the source. Square brackets hold non-standard residues; d marks the D form. Peptide text beside a SMILES is read from it. Phe(ol) = N[C@H](CO)Cc1ccccc1; Leu(ol) = CC(C)C[C@H](N)CO; dIva = CC[C@@](C)(N)C(=O)O; Aib = CC(C)(N)C(=O)O

What was measured:
HepG2 cells = test: HepG2 cytotoxicity assay (MTS); type: cell-based, H. sapiens; conditions: for EC50: 48 h, MTS, absorbance 490 nm, highest concentration 25 μM, mean ± SEM, biological triplicate; for cytotoxicity in HepG2: highest concentration tested 25 μM
Procedure: HepG2 cells are grown at 37°C in DMEM with 10% FBS, 1% Antibiotic/Antimycotic, 0.3% NaHCO3, 5 mM HEPES pH 7.4, and 2 mM L-glutamine as needed in an atmosphere containing 5% CO2.
The cytotoxicity assay was performed as reported previously.[35] HepG2 cells were seeded at ∼2,250 cells per well 24 h prior to compound addition. Cells were then incubated for an additional 48 h prior to the addition of MTS and absorbance reading at 490 nm on Synergy Neo2 multimode reader (BioTek, Winsooki, VT). Cytotoxicity EC50 values were determined using CDD Vault (https://www.collaborativedrug.com/).

[1] = test system: P. berghei liver stage parasites in HepG2 cells; test: High content imaging P. berghei liver stage assay (luciferase 48 HPI, MSP1/AMA1 72 HPI, HepG2 area); type: cell-based; conditions: for Liver stage inhibition: Figure 7A summary
Procedure: HepG2 cells infected with luciferase-expressing P. berghei sporozoites were seeded onto compound-loaded 384-well plates 2 hours after sporozoite addition. A live luciferase readout at 48 HPI[62] quantifies compound activity against parasite biomass, while HCI of MSP1 and AMA1 expression at 72 HPI quantifies effects on liver stage maturation and hepatic merozoite formation. Compound effects on hepatocytes are assessed based on HepG2 area occupied in the 72 HPI HCI assay. All data are normalized to in-plate DMSO controls.

asynchronous Dd2 culture = test: Killing profile (flow cytometry, SYBR Green I / Mitotracker Deep Red FM); type: cell-based, P. falciparum; conditions: for Killing Profile: 10 x EC50
Procedure: Killing profile analyses were performed as previously described,[64] in asynchronous Dd2 culture, starting at approximately 1% parasitemia, 4% hematocrit. Compound was added to culture in majority ring stage and incubated for 12, 24, or 48 h prior to washing and sample collection. Media were then changed normally every 24 h for 6 days. Samples taken each day were used for Giemsa thin smears, and flow cytometric analysis to monitor parasitemia and mitotracker retention. For staining, samples were incubated in a solution of 1:1000 SYBR Green I and 0.6 μM Mitotracker Deep red FM for 30 min then read on a CytoFLEX S (Beckman Coulter, Brea, CA), with 100,000 events recorded per sample. Flow cytometry was gated in FlowJo Version 10 using DHA, vehicle, no Mitotracker, and uninfected RBC controls. Assay workflow outline was created using BioRender.

[2] = test system: HZ NPDG-I-resistant Dd2 clones (pfmdr1 mutants); type: cell-based, P. falciparum; conditions: for pfMDR1 Clone Sensitivity: Figure 7A summary; for Fold Change in IC50 vs the parental line, clone 1B2 / Fold Change in IC50 vs the parental line, clone 1E2 / Fold Change in IC50 vs the parental line, clone 2B3 / Fold Change in IC50 vs the parental line, clone 3A3: Figure S5, 72 h, SYTO 61 flow cytometry; on pfMDR1 Clone Sensitivity: key: -: A '–' indicates a negative finding; a single '+' indicates a positive finding; a double '++' indicates a strong positive finding
Procedure: Screening of HZ NPDG-I resistant clones was performed at 1% parasitemia, 0.2% hematocrit with flow cytometry in V-shaped 96-well plates. Briefly, compounds were subjected to a 3-fold serial dilution with the highest concentration set at 4 μM or 8 μM. Eleven dilution points were included in addition to no-drug controls. Three technical replicates were set up for each compound at each dilution point. The Dd2-B2 parent line, or the clonal line 1B2, 2B3, 3A3, or 1E2 were added at 0.4% hematocrit and 1% parasitemia to the diluted compounds at a 1:1 ratio. The plate was incubated at 37°C for 72 h in a chamber filled with a hypoxic gas mixture (3% oxygen, 5% carbon dioxide, and 92% nitrogen). After incubation, a blood pellet was formed at the bottom of each well of the 96-well plate. Supernatant was removed without disturbing the pellet, and 20 μl of SYTO 61(1:10,000 dilution; Thermo Fisher Scientific, Cat No. S11343) in PBS was added to each well and incubated for 15 mins at room temperature. The cells in each well were then diluted with 180 μl of PBS and subjected to flow cytometry for parasitemia determination using the HTS (High-Throughput Sampler) of BD FACSCanto II (BD Biosciences, NJ). Flow cytometry data was analyzed using FlowJo Version 10.4.0. Dose response curves were generated and IC50 values obtained with GraphPad Prism Version 9.1.1.
A clone of the Dd2 strain (Dd2-B2) of P. falciparum was used for in vitro evolution of resistance against harzianin NPDG I. Three flasks of 1.2 x 10^8 parasites were continuously exposed to a stepwise-increasing concentration of the compound over ∼3 months starting from 20 nM up to a final concentration of 100 nM. Once a stable rightward shift in 72 h IC50 was observed, cultures were subjected to limiting dilution to obtained harzianin-resistant clones. Each clone was expanded, phenotyped to confirm resistance, and submitted for whole genome sequencing. An untreated flask of Dd2-B2 parasites was maintained in parallel throughout the course of in vitro selection as a control.

red blood cell (RBC) = test: Percent hemolysis determination; type: cell-based, human; conditions: for hemolysis at 25 μM: RBCs in PBS, 1% hematocrit, 1 h, 37°C, absorbance 550 nm, 0.01% saponin control, biological triplicate; for Hemolytic Potential: Figure 7A summary; on Hemolytic Potential: key: -: A '–' indicates a negative finding; a single '+' indicates a positive finding; a double '++' indicates a strong positive finding
Procedure: Hemolysis assay performed as outlined in Duvall et al. with some modifications.[63] Whole blood was first washed and resuspended in PBS to isolate RBCs. Compound was then added in serial dilutions to PBS with 1% hematocrit, with vehicle or 0.01% saponin used as controls. Plates were incubated for 1 h at 37°C then centrifuged for 10 min at 900 x g. Supernatant was then transferred to a clear plate and absorbance was read at 550 nm. Extended incubation with compound (up to 3 days) was performed during assay optimization, with no changes noted in percent hemolysis.

[3] = 10 x EC50, monitored for 6 days, 3 biological replicates

CC[C@@](C)(NC(=O)C(C)(C)NC(=O)[C@H](CC(C)C)NC(=O)[C@@H]1CCCN1C(=O)C(C)(C)NC(=O)[C@H](CC(C)C)NC(=O)CNC(=O)C(C)(C)NC(=O)[C@@H](NC(=O)C(C)(C)NC(=O)[C@H](CCC(N)=O)NC(=O)C(C)(C)NC(=O)C(C)(C)NC(=O)[C@H](C)NC(=O)CNC(=O)C(C)(C)NC(C)=O)C(C)C)C(=O)N[C@@H](CCC(N)=O)C(=O)N[C@H](CO)CC(C)C [TC HA-II, trichorzin HA II] (Ac-[Aib]GA[Aib][Aib]Q[Aib]V[Aib]GL[Aib]PL[Aib][dIva]Q[Leu(ol)])
EC50 (HepG2 cells): 13000 ± 2000 nM
cytotoxicity in HepG2 (HepG2 cells): Minor cytotoxicity
Liver stage inhibition [1]: Maturation and replication
luciferase inhibition at 48 HPI (liver stage HCI) ([1]; tested at 5 and 0.5 μM): showed luciferase inhibition
Killing Profile (asynchronous Dd2 culture): Rapid
parasitemia after 12 h incubation and washout (asynchronous Dd2 culture; [3]): inhibit parasitemia for all 6 days
pfMDR1 Clone Sensitivity [2]: -
hemolysis at 25 μM (red blood cell (RBC)): 53%
Hemolytic Potential (red blood cell (RBC)): +

CC(=O)NC(C)(C)C(=O)N1CCC[C@H]1C(=O)NC(C)(C)C(=O)N[C@@H](C)C(=O)NC(C)(C)C(=O)N[C@@H](C)C(=O)N[C@@H](CCC(N)=O)C(=O)NC(C)(C)C(=O)N[C@H](C(=O)NC(C)(C)C(=O)NCC(=O)N[C@@H](CC(C)C)C(=O)NC(C)(C)C(=O)N1CCC[C@H]1C(=O)N[C@H](C(=O)NC(C)(C)C(=O)NC(C)(C)C(=O)N[C@@H](CCC(=O)O)C(=O)N[C@@H](CCC(N)=O)C(=O)N[C@H](CO)Cc1ccccc1)C(C)C)C(C)C [Alamethicin, reference compound] (Ac-[Aib]P[Aib]A[Aib]AQ[Aib]V[Aib]GL[Aib]PV[Aib][Aib]EQ[Phe(ol)]; N-terminus assumed)
EC50 (HepG2 cells): 6600 ± 100 nM
cytotoxicity in HepG2 (HepG2 cells): Minor cytotoxicity
Fold Change in IC50 vs the parental line, clone 1B2 [2]: 0.55
Fold Change in IC50 vs the parental line, clone 1E2 [2]: 0.45
Fold Change in IC50 vs the parental line, clone 2B3 [2]: 0.63
Fold Change in IC50 vs the parental line, clone 3A3 [2]: 0.54
hemolysis at 25 μM (red blood cell (RBC)): 73%

CC[C@H](C)[C@H](NC(=O)[C@H](C)NC(=O)[C@@H]1CCCN1C(=O)C(C)(C)NC(=O)[C@H](CC(C)C)NC(=O)[C@H](CCC(N)=O)NC(=O)[C@@](C)(CC)NC(C)=O)C(=O)NC(C)(C)C(=O)N1CCC[C@H]1C(=O)N[C@](C)(CC)C(=O)N[C@@H](CC(C)C)C(=O)NC(C)(C)C(=O)N1CCC[C@H]1C(=O)N[C@H](CO)CC(C)C [HZ NPDG-H, harzianin NPDG H] (Ac-[dIva]QL[Aib]PAI[Aib]P[dIva]L[Aib]P[Leu(ol)])
EC50 (HepG2 cells): > 25000 nM
cytotoxicity in HepG2 (HepG2 cells): no cytotoxicity
Liver stage inhibition [1]: Maturation only
Killing Profile (asynchronous Dd2 culture): cytostatic
parasitemia after 12 h incubation and washout (asynchronous Dd2 culture; [3]): recovered by day 3
parasitemia after 48 h incubation and washout (asynchronous Dd2 culture; [3]): increase in parasitemia at day 5
Killing Profile (asynchronous Dd2 culture; listed as Harzianin NPDG H): Slow
EC50 increase in HZ NPDG-I resistant clones vs parental line ([2]; 4 resistant clones screened): 1.4 fold
pfMDR1 Clone Sensitivity [2]: -
Fold Change in IC50 vs the parental line, clone 1B2 [2]: 0.62
Fold Change in IC50 vs the parental line, clone 1E2 [2]: 0.98
Fold Change in IC50 vs the parental line, clone 2B3 [2]: 1.14
Fold Change in IC50 vs the parental line, clone 3A3 [2]: 1.40
Hemolytic Potential (red blood cell (RBC)): -

CC[C@H](C)[C@H](NC(=O)[C@H](CC(C)C)NC(=O)[C@H](CCC(N)=O)NC(=O)[C@@](C)(CC)NC(C)=O)C(=O)NC(C)(C)C(=O)N1CCC[C@H]1C(=O)N[C@](C)(CC)C(=O)N[C@@H](CC(C)C)C(=O)NC(C)(C)C(=O)N1CCC[C@H]1C(=O)N[C@H](CO)CC(C)C [HZ NPDG-I, harzianin NPDG I] (Ac-[dIva]QLI[Aib]P[dIva]L[Aib]P[Leu(ol)])
EC50 (HepG2 cells): > 25000 nM
cytotoxicity in HepG2 (HepG2 cells): no cytotoxicity
Liver stage inhibition [1]: Maturation only
Killing Profile (asynchronous Dd2 culture): Rapid
parasitemia after 12 h incubation and washout (asynchronous Dd2 culture; [3]): inhibit parasitemia for all 6 days
pfMDR1 Clone Sensitivity [2]: ++
Fold Change in IC50 vs the parental line, clone 1B2 [2]: 8.70
Fold Change in IC50 vs the parental line, clone 1E2 [2]: 5.70
Fold Change in IC50 vs the parental line, clone 2B3 [2]: 7.00
Fold Change in IC50 vs the parental line, clone 3A3 [2]: 4.50
fold change, clone 1D5 ([2]; flask 1, IC50 vs Dd2-B2): 4.65
fold change, clone 1H3 ([2]; flask 1, IC50 vs Dd2-B2): 7.57
fold change, clone Harzianin-Dd2-1B2 ([2]; flask 1, IC50 vs Dd2-B2): 8.64
fold change, clone Harzianin-Dd2-1C12 ([2]; flask 1, IC50 vs Dd2-B2): 9.71
fold change, clone Harzianin-Dd2-1E2 ([2]; flask 1, IC50 vs Dd2-B2): 5.63
IC50 ([2]; flask 1, read-out: IC50, clone 1D5): 0.249 nM
IC50 ([2]; flask 1, read-out: IC50, clone 1H3): 0.406 nM
IC50 ([2]; flask 1, read-out: IC50, clone Harzianin-Dd2-1B2): 0.463 nM
IC50 ([2]; flask 1, read-out: IC50, clone Harzianin-Dd2-1C12): 0.52 nM
IC50 ([2]; flask 1, read-out: IC50, clone Harzianin-Dd2-1E2): 0.302 nM
fold change, clone 2B7 ([2]; flask 2, IC50 vs Dd2-B2): 3.87
fold change, clone 2E9 ([2]; flask 2, IC50 vs Dd2-B2): 6.77
fold change, clone Harzianin-Dd2-2B3 ([2]; flask 2, IC50 vs Dd2-B2): 6.98
fold change, clone Harzianin-Dd2-2E8 ([2]; flask 2, IC50 vs Dd2-B2): 5.31
fold change, clone Harzianin-Dd2-2G7 ([2]; flask 2, IC50 vs Dd2-B2): 4.60
IC50 ([2]; flask 2, read-out: IC50, clone 2B7): 0.0859 nM
IC50 ([2]; flask 2, read-out: IC50, clone 2E9): 0.15 nM
IC50 ([2]; flask 2, read-out: IC50, clone Harzianin-Dd2-2B3): 0.155 nM
IC50 ([2]; flask 2, read-out: IC50, clone Harzianin-Dd2-2E8): 0.118 nM
IC50 ([2]; flask 2, read-out: IC50, clone Harzianin-Dd2-2G7): 0.102 nM
fold change, clone 3A5 ([2]; flask 3, IC50 vs DD2-B2): 4.30
fold change, clone 3B7 ([2]; flask 3, IC50 vs DD2-B2): 4.05
fold change, clone 3G7 ([2]; flask 3, IC50 vs DD2-B2): 3.98
fold change, clone Harzianin-Dd2-3A3 ([2]; flask 3, IC50 vs DD2-B2): 4.51
fold change, clone Harzianin-Dd2-3C6 ([2]; flask 3, IC50 vs DD2-B2): 4.68
fold change, clone Harzianin-Dd2-3G11 ([2]; flask 3, IC50 vs DD2-B2): 3.93
IC50 ([2]; flask 3, read-out: IC50, clone 3A5): 0.188 nM
IC50 ([2]; flask 3, read-out: IC50, clone 3B7): 0.177 nM
IC50 ([2]; flask 3, read-out: IC50, clone 3G7): 0.174 nM
IC50 ([2]; flask 3, read-out: IC50, clone Harzianin-Dd2-3A3): 0.197 nM
IC50 ([2]; flask 3, read-out: IC50, clone Harzianin-Dd2-3C6): 0.204 nM
IC50 ([2]; flask 3, read-out: IC50, clone Harzianin-Dd2-3G11): 0.172 nM
Hemolytic Potential (red blood cell (RBC)): -
